From patent US10766869B2, “Triazoles for the treatment of demyelinating dieases” (Vertex Pharmaceuticals Incorporated, priority 2015, dated 2020)

Tested on: primary rat mixed cortical cells
Test: In vitro myelination assay (MBP positive myelin strands, fold myelin pixels above background)
Type: cell-based
Details: Rattus norvegicus, relative to baseline of no added compound; for fold induction at 1 µM: 1.0 μM compound, read-out: Fold myelin pixels above background, 1.0 μM; for fold induction at 10 µM: 10.0 μM compound, read-out: Fold myelin pixels above background, 10.0 μM
In short: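 Mixed cortical culture, P1 rat, 87,500-95,000 cells/well; compound present from seeding, refreshed days 6 and 10; 14 d, 37 °C, 5% CO2. Day 14: PFA fix, anti-MBP + Hoechst. Read-out: fold MBP myelin pixels over untreated, tested at 1.0 and 10.0 μM.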

COc1cccc(-n2cnc(Nc3cc(C)cc(N4CCN(C5COC5)CC4)c3)n2)c1 [Compound 86, 1-(3-methoxyphenyl)-N-[3-methyl-5-[4-(oxetan-3-yl)piperazin-1-yl]phenyl]-1,2,4-triazol-3-amine]
fold induction at 1 µM: 100 to 1000
fold induction at 10 µM: 100 to 1000

Cc1cc(Nc2ncn(-c3ccccc3)n2)cc(N2CCN(C3CCCC3)CC2)c1 [Compound 87, N-[3-(4-cyclopentylpiperazin-1-yl)-5-methyl-phenyl]-1-phenyl-1,2,4-triazol-3-amine]
fold induction at 1 µM: 100 to 1000
fold induction at 10 µM: 100 to 1000

Fc1ccc(-n2cnc(Nc3cc(C4CC4)nc(N4CCOCC4)c3)n2)cc1F [Compound 88, 2-cyclopropyl-N-[1-(3,4-difluorophenyl)-1,2,4-triazol-3-yl]-6-morpholino-pyridin-4-amine]
fold induction at 1 µM: 1000 to 10000
fold induction at 10 µM: 1000 to 10000

Cc1cc(Nc2ncn(-c3ccccc3)n2)cc(N2CCS(=O)(=O)CC2)c1 [Compound 89, N-[3-(1,1-dioxo-1,4-thiazinan-4-yl)-5-methyl-phenyl]-1-phenyl-1,2,4-triazol-3-amine]
fold induction at 1 µM: 1000 to 10000
fold induction at 10 µM: 100 to 1000

CC(=O)N1CCC(c2cc(C)cc(Nc3ncn(-c4cc(F)cc(F)c4)n3)c2)CC1 [Compound 90, 1-[4-[3-[[1-(3,5-difluorophenyl)-1,2,4-triazol-3-yl]amino]-5-methyl-phenyl]-1-piperidyl]ethanone]
fold induction at 1 µM: 100 to 1000
fold induction at 10 µM: 1 to 10

CCc1cc(Nc2ncn(-c3ccnc(C)n3)n2)cc(N2CCN(C3COC3)CC2)c1 [Compound 91, N-[3-ethyl-5-[4-(oxetan-3-yl)piperazin-1-yl]phenyl]-1-(2-methylpyrimidin-4-yl)-1,2,4-triazol-3-amine]
fold induction at 1 µM: ≤ 1
fold induction at 10 µM: 100 to 1000

Cc1cc(Nc2ncn(-c3cc(F)cc(F)c3)n2)cc(N2CCNCC2=O)c1 [Compound 93, 1-[3-[[1-(3,5-difluorophenyl)-1,2,4-triazol-3-yl]amino]-5-methyl-phenyl]piperazin-2-one]
fold induction at 1 µM: 10 to 100
fold induction at 10 µM: 100 to 1000

COc1cccc(-n2cnc(Nc3cc(C)cc(N4CCN(C)CC4)c3)n2)c1 [Compound 94, 1-(3-methoxyphenyl)-N-[3-methyl-5-(4-methylpiperazin-1-yl)phenyl]-1,2,4-triazol-3-amine]
fold induction at 1 µM: 100 to 1000
fold induction at 10 µM: 1 to 10

Cc1cc(Nc2ncn(-c3cc(F)cc(F)c3)n2)cc(N2CCN(C3CSC3)CC2)c1 [Compound 95, 1-(3,5-difluorophenyl)-N-[3-methyl-5-[4-(thietan-3-yl)piperazin-1-yl]phenyl]-1,2,4-triazol-3-amine]
fold induction at 1 µM: 10 to 100
fold induction at 10 µM: ≤ 1

CN1CCN(c2cc(Nc3ncn(-c4ccncn4)n3)cc(C(F)(F)F)c2)CC1 [Compound 96, N-[3-(4-methylpiperazin-1-yl)-5-(trifluoromethyl)phenyl]-1-pyrimidin-4-yl-1,2,4-triazol-3-amine]
fold induction at 1 µM: 100 to 1000
fold induction at 10 µM: 100 to 1000

CC(C)(C)c1cc(Nc2ncn(-c3cccc(F)c3)n2)cc(N2CCN(C3COC3)CC2)c1 [Compound 97, N-[3-tert-butyl-5-[4-(oxetan-3-yl)piperazin-1-yl]phenyl]-1-(3-fluorophenyl)-1,2,4-triazol-3-amine]
fold induction at 1 µM: 100 to 1000
fold induction at 10 µM: 100 to 1000

CN1CCCN(c2cc(F)cc(Nc3ncn(-c4cccc(F)c4)n3)c2)CC1 [Compound 98, N-[3-fluoro-5-(4-methyl-1,4-diazepan-1-yl)phenyl]-1-(3-fluorophenyl)-1,2,4-triazol-3-amine]
fold induction at 1 µM: 10 to 100
fold induction at 10 µM: ≤ 1

Fc1cc(Nc2ncn(-c3ccc(F)c(F)c3)n2)cc(N2CCCC2)c1 [Compound 99, 1-(3,4-difluorophenyl)-N-(3-fluoro-5-pyrrolidin-1-yl-phenyl)-1,2,4-triazol-3-amine]
fold induction at 1 µM: ≤ 1
fold induction at 10 µM: ≤ 1

Fc1ccc(-n2cnc(Nc3cc(Cl)nc(N4CCOCC4)c3)n2)cc1F [Compound 100, 2-chloro-N-[1-(3,4-difluorophenyl)-1,2,4-triazol-3-yl]-6-morpholino-pyridin-4-amine]
fold induction at 1 µM: 100 to 1000
fold induction at 10 µM: 100 to 1000

COc1cc(Nc2ncn(-c3ccc(F)cc3)n2)cc(N2CCN(C3COC3)CC2)c1 [Compound 102, 1-(4-fluorophenyl)-N-[3-methoxy-5-[4-(oxetan-3-yl)piperazin-1-yl]phenyl]-1,2,4-triazol-3-amine]
fold induction at 1 µM: 100 to 1000
fold induction at 10 µM: 1 to 10

CCC1CCCN1c1cc(F)cc(-n2cnc(Nc3cc(C)cc(N4CCN(C5COC5)CC4)c3)n2)c1 (stereo not shown) [Compound 103, 1-[3-(2-ethylpyrrolidin-1-yl)-5-fluoro-phenyl]-N-[3-methyl-5-[4-(oxetan-3-yl)piperazin-1-yl]phenyl]-1,2,4-triazol-3-amine]
fold induction at 1 µM: 100 to 1000
fold induction at 10 µM: ≤ 1

Cc1cc(Nc2ncn(-c3ccccn3)n2)cc(N2CCN(C3COC3)CC2)c1 [Compound 104, N-[3-methyl-5-[4-(oxetan-3-yl)piperazin-1-yl]phenyl]-1-(2-pyridyl)-1,2,4-triazol-3-amine]
fold induction at 1 µM: 10 to 100
fold induction at 10 µM: 100 to 1000

Fc1cc(F)cc(-n2cnc(Nc3cc(C4CC4)nc(N4CC[C@@H](F)C4)c3)n2)c1 [Compound 105, 2-cyclopropyl-N-[1-(3,5-difluorophenyl)-1,2,4-triazol-3-yl]-6-[(3R)-3-fluoropyrrolidin-1-yl]pyridin-4-amine]
fold induction at 1 µM: 100 to 1000
fold induction at 10 µM: 1 to 10

COc1cccc(-n2cnc(Nc3cc(Cl)nc(N4CCCCC4)c3)n2)c1 [Compound 106, 2-chloro-N-[1-(3-methoxyphenyl)-1,2,4-triazol-3-yl]-6-(1-piperidyl)pyridin-4-amine]
fold induction at 1 µM: ≤ 1
fold induction at 10 µM: 1 to 10

Cc1cc(Nc2ncn(-c3cc(F)cc(F)c3)n2)cc(C2CCNCC2)c1 [Compound 108, 1-(3,5-difluorophenyl)-N-[3-methyl-5-(4-piperidyl)phenyl]-1,2,4-triazol-3-amine]
fold induction at 1 µM: 10 to 100
fold induction at 10 µM: ≤ 1

CN(C)C1CCN(c2cc(F)cc(Nc3ncn(-c4cccc(F)c4)n3)c2)C1 (stereo not shown) [Compound 109, N-[3-[3-(dimethylamino)pyrrolidin-1-yl]-5-fluoro-phenyl]-1-(3-fluorophenyl)-1,2,4-triazol-3-amine]
fold induction at 1 µM: 10 to 100
fold induction at 10 µM: ≤ 1

Cc1cc(Nc2ncn(-c3ccccc3)n2)cc(N2CCCC2)c1 [Compound 110, N-(3-methyl-5-pyrrolidin-1-yl-phenyl)-1-phenyl-1,2,4-triazol-3-amine]
fold induction at 1 µM: 100 to 1000
fold induction at 10 µM: 1 to 10

Cc1cc(Nc2ncn(-c3cc(C)ncn3)n2)cc(N2CCN(C3COC3)CC2)c1 [Compound 111, N-[3-methyl-5-[4-(oxetan-3-yl)piperazin-1-yl]phenyl]-1-(6-methylpyrimidin-4-yl)-1,2,4-triazol-3-amine]
fold induction at 1 µM: 10 to 100
fold induction at 10 µM: 100 to 1000

Fc1cc(Nc2ncn(-c3cc(F)cc(F)c3)n2)cc(N2CCN(C3COC3)CC2)c1 [Compound 112, 1-(3,5-difluorophenyl)-N-[3-fluoro-5-[4-(oxetan-3-yl)piperazin-1-yl]phenyl]-1,2,4-triazol-3-amine]
fold induction at 1 µM: 1000 to 10000
fold induction at 10 µM: 100 to 1000

Cc1cc(Nc2ncn(-c3ccc(F)c(F)c3)n2)cc(NC2CCN(C3COC3)C2)c1 (stereo not shown) [Compound 113, N3-[1-(3,4-difluorophenyl)-1,2,4-triazol-3-yl]-5-methyl-N1-[1-(oxetan-3-yl)pyrrolidin-3-yl]benzene-1,3-diamine]
fold induction at 1 µM: 1000 to 10000
fold induction at 10 µM: ≤ 1

Cc1cc(Nc2ncn(-c3cc(F)cc(F)c3)n2)cc(N2CCCC(N3CCCC3=O)C2)c1 (stereo not shown) [Compound 114, 1-[1-[3-[[1-(3,5-difluorophenyl)-1,2,4-triazol-3-yl]amino]-5-methyl-phenyl]-3-piperidyl]pyrrolidin-2-one]
fold induction at 1 µM: 10 to 100
fold induction at 10 µM: 10 to 100

CC(=O)N1CCCC(Nc2cc(C)cc(Nc3ncn(-c4ccccc4)n3)c2)C1 (stereo not shown) [Compound 115, 1-[3-[3-methyl-5-[(1-phenyl-1,2,4-triazol-3-yl)amino]anilino]-1-piperidyl]ethanone]
fold induction at 1 µM: 100 to 1000
fold induction at 10 µM: 100 to 1000

COCC1CN(c2cc(C)cc(Nc3ncn(-c4cc(F)cc(F)c4)n3)c2)C1 [Compound 116, 1-(3,5-difluorophenyl)-N-[3-[3-(methoxymethyl)azetidin-1-yl]-5-methyl-phenyl]-1,2,4-triazol-3-amine]
fold induction at 1 µM: ≤ 1
fold induction at 10 µM: ≤ 1

CC(=O)N1CCCC(c2cc(C)cc(Nc3ncn(-c4ccccc4)n3)c2)C1 (stereo not shown) [Compound 117, 1-[3-[3-methyl-5-[(1-phenyl-1,2,4-triazol-3-yl)amino]phenyl]-1-piperidyl]ethanone]
fold induction at 1 µM: 1000 to 10000
fold induction at 10 µM: ≤ 1

Cc1cc(Nc2ncn(-c3ccccc3)n2)cc(N2CCN(C3COC3)CC2)c1 [Compound 118, N-[3-methyl-5-[4-(oxetan-3-yl)piperazin-1-yl]phenyl]-1-phenyl-1,2,4-triazol-3-amine]
fold induction at 1 µM: 100 to 1000
fold induction at 10 µM: 10 to 100

Cc1cc(Nc2ncn(-c3cc(F)cc(F)c3)n2)cc(N2CCN(C)C(C)C2)c1 (stereo not shown) [Compound 119, 1-(3,5-difluorophenyl)-N-[3-(3,4-dimethylpiperazin-1-yl)-5-methyl-phenyl]-1,2,4-triazol-3-amine]
fold induction at 1 µM: 100 to 1000
fold induction at 10 µM: 10 to 100

Cc1cc(Nc2ncn(-c3ccccc3)n2)cc(C2CCN(C3CC3)CC2)c1 [Compound 120, N-[3-(1-cyclopropyl-4-piperidyl)-5-methyl-phenyl]-1-phenyl-1,2,4-triazol-3-amine]
fold induction at 1 µM: 1000 to 10000
fold induction at 10 µM: ≤ 1
